Measured values taken from patent US12187723B2 (BRISTOL-MYERS SQUIBB COMPANY, priority 2019, dated 2025).

target: T1, human TLR7 (Homo sapiens, UniProt Q9NYK1); assay: TLR7 inhibition reporter assay (HEK-Blue SEAP); format: cell-based; details: HEK-Blue cells overexpressing human TLR7, gardiquimod 7.5 μM, 22 hour incubation
T1 construct: host or cells: HEK-Blue cells
T1 sequence (Q9NYK1 27-1049): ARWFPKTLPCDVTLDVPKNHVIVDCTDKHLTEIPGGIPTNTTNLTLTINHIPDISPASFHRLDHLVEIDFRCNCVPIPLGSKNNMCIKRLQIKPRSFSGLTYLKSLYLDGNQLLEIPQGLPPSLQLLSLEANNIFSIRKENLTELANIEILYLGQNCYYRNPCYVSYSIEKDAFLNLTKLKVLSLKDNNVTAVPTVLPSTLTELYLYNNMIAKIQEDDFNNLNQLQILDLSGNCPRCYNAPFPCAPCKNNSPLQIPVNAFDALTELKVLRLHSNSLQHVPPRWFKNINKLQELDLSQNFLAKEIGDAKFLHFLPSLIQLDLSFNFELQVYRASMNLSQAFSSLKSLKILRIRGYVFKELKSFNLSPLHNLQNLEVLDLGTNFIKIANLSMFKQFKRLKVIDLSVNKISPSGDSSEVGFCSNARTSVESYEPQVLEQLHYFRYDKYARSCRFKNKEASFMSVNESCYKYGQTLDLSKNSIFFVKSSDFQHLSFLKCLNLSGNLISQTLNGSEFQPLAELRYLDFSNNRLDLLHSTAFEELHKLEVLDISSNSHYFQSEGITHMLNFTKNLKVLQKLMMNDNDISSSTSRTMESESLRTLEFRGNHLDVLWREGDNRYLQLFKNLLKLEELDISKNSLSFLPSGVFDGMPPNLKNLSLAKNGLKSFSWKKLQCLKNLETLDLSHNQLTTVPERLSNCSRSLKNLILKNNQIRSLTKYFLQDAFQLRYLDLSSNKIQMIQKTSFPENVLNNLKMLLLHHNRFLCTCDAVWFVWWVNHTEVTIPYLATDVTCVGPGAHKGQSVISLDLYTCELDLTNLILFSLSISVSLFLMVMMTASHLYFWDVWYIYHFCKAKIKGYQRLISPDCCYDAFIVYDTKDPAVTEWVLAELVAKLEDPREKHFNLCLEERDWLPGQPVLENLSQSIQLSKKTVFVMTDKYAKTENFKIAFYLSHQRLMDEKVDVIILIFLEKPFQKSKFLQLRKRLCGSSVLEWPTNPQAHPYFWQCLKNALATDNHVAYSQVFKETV
How it was run: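 Cells (15000/well for TLR7, 20,000 for TLR8) were treated with compounds over 0.05 nM-50 μM final. After 22 h at 37° C, 5% CO2, SEAP was measured with HEK-Blue Detection reagent; percent inhibition was taken as reduction of agonist-plus-DMSO signal relative to a known inhibitor.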

IC50 | SMILES
0.82 µM | Cc1cc2c(cc1-c1cc(C)c3ncnn3c1)[nH]c(=O)n2[C@H]1CCCN(CC(N)=O)C1 [Example 92, (S)-2-(3-(6-methyl-5-(8-methyl-[1,2,4]triazolo[1,5-a]pyridin-6-yl)-2-oxo-2,3-dihydro-1H-benzo[d]imidazol-1-yl)piperidin-1-yl)acetamide]
1.53 µM | COc1cc(-c2ccc3c(c2)[nH]c(=O)n3C2CCN(C(C)C)CC2)cn2ncnc12 [Example 77, 1-(1-isopropylpiperidin-4-yl)-5-(8-methoxy-[1,2,4]triazolo[1,5-a]pyridin-6-yl)-1,3-dihydro-2H-benzo[d]imidazol-2-one]
2.16 µM | Cc1cc(-c2ccc3c(c2)[nH]c(=O)n3C2CCN(CC(=O)N(C)C)CC2)cn2ncnc12 [Example 90, N,N-dimethyl-2-(4-(5-(8-methyl-[1,2,4]triazolo[1,5-a]pyridin-6-yl)-2-oxo-2,3-dihydro-1H-benzo[d]imidazol-1-yl)piperidin-1-yl)acetamide]
0.016 µM | COc1cc(-c2cc3[nH]c(=O)n([C@H]4CC[C@@H](N(C)C(C)C)CC4)c3cc2C)cn2ncnc12 [Example 84, 1-((1s,4s)-4-(isopropyl(methyl)amino)cyclohexyl)-5-(8-methoxy-[1,2,4]triazolo[1,5-a]pyridin-6-yl)-6-methyl-1,3-dihydro-2H-benzo[d]imidazol-2-one]
0.163 µM | COc1cc(-c2cc3[nH]c(=O)n([C@@H]4CCCN(C5CCOCC5)C4)c3cc2C)cn2ncnc12 [Example 70, (R)-5-(8-methoxy-[1,2,4]triazolo[1,5-a]pyridin-6-yl)-6-methyl-1-(1-(tetrahydro-2H-pyran-4-yl)piperidin-3-yl)-1,3-dihydro-2H-benzo[d]imidazol-2-one]
0.111 µM | Cc1cc2c(cc1-c1cc(C)c3ncnn3c1)[nH]c(=O)n2C1CCN(CC(=O)N(C)C)CC1 [Example 89, N,N-dimethyl-2-(4-(6-methyl-5-(8-methyl-[1,2,4]triazolo[1,5-a]pyridin-6-yl)-2-oxo-2,3-dihydro-1H-benzo[d]imidazol-1-yl)piperidin-1-yl)acetamide]
0.333 µM | CNC(=O)CN1CCC(n2c(=O)[nH]c3cc(-c4cc(C)c5ncnn5c4)c(C)cc32)CC1 [Example 88, N-methyl-2-(4-(6-methyl-5-(8-methyl-[1,2,4]triazolo[1,5-a]pyridin-6-yl)-2-oxo-2,3-dihydro-1H-benzo[d]imidazol-1-yl)piperidin-1-yl)acetamide]
0.142 µM | COc1cc(-c2cc3[nH]c(=O)n(C4CCN(CC(=O)N(C)C)CC4)c3cc2C)cn2ncnc12 [Example 86, 2-(4-(5-(8-methoxy-[1,2,4]triazolo[1,5-a]pyridin-6-yl)-6-methyl-2-oxo-2,3-dihydro-1H-benzo[d]imidazol-1-yl)piperidin-1-yl)-N,N-dimethylacetamide]

Continued, compound first:

SMILES | IC50
Cc1cc2c(cc1-c1cc(C)c3ncnn3c1)[nH]c(=O)n2[C@@H]1CCCN(Cc2cccnc2)C1 [Example 46, (R)-6-methyl-5-(8-methyl-[1,2,4]triazolo[1,5-a]pyridin-6-yl)-1-(1-(pyridin-3-ylmethyl)piperidin-3-yl)-1,3-dihydro-2H-benzo[d]imidazol-2-one] | 0.172 µM
Cc1cc2c(cc1-c1cc(C)c3ncnn3c1)[nH]c(=O)n2[C@@H]1CCCN(CCCC(F)(F)F)C1 [Example 39, (R)-6-methyl-5-(8-methyl-[1,2,4]triazolo[1,5-a]pyridin-6-yl)-1-(1-(4,4,4-trifluorobutyl)piperidin-3-yl)-1,3-dihydro-2H-benzo[d]imidazol-2-one] | 0.139 µM
Cc1cc2c(cc1-c1cc(C)c3ncnn3c1)[nH]c(=O)n2C1CCN(C(C)C)CC1 [Example 2, 1-(1-isopropylpiperidin-4-yl)-6-methyl-5-(8-methyl-[1,2,4]triazolo[1,5-a]pyridin-6-yl)-1,3-dihydro-2H-benzo[d]imidazol-2-one] | 0.0688 µM
Cc1cc2c(cc1-c1cc(C)c3ncnn3c1)[nH]c(=O)n2[C@@H]1CCCN(CC2CC2)C1 [Example 37, (R)-1-(1-(cyclopropylmethyl)piperidin-3-yl)-6-methyl-5-(8-methyl-[1,2,4]triazolo[1,5-a]pyridin-6-yl)-1,3-dihydro-2H-benzo[d]imidazol-2-one] | 0.0309 µM
Cc1cc2c(cc1-c1cc(C)c3ncnn3c1)[nH]c(=O)n2[C@@H]1CCCN(CC(C)C)C1 [Example 40, (R)-1-(1-isobutylpiperidin-3-yl)-6-methyl-5-(8-methyl-[1,2,4]triazolo[1,5-a]pyridin-6-yl)-1,3-dihydro-2H-benzo[d]imidazol-2-one] | 0.0148 µM
COc1cc(-c2cc3[nH]c(=O)n([C@H]4CC[C@@H](NCC5CCCCC5)CC4)c3cc2C)cn2ncnc12 [Example 66, 1-((1s,4s)-4-((cyclohexylmethyl)amino)cyclohexyl)-5-(8-methoxy-[1,2,4]triazolo[1,5-a]pyridin-6-yl)-6-methyl-1,3-dihydro-2H-benzo[d]imidazol-2-one] | 0.0208 µM
COc1cc(-c2cc3[nH]c(=O)n(C4CCN(C)CC4)c3cc2C)cn2ncnc12 [Example 1, 5-(8-methoxy-[1,2,4]triazolo[1,5-a]pyridin-6-yl)-6-methyl-1-(1-methylpiperidin-4-yl)-1,3-dihydro-2H-benzo[d]imidazol-2-one] | 0.0379 µM
COc1cc(-c2cc3[nH]c(=O)n([C@H]4CC[C@@H](NC5CCCC5)CC4)c3cc2C)cn2ncnc12 [Example 65, 1-((1s,4s)-4-(cyclopentylamino)cyclohexyl)-5-(8-methoxy-[1,2,4]triazolo[1,5-a]pyridin-6-yl)-6-methyl-1,3-dihydro-2H-benzo[d]imidazol-2-one] | 0.0105 µM
COc1cc(-c2cc3[nH]c(=O)n([C@H]4CC[C@@H](NC5CCOCC5)CC4)c3cc2C)cn2ncnc12 [Example 49, 5-(8-methoxy-[1,2,4]triazolo[1,5-a]pyridin-6-yl)-6-methyl-1-((1s,4s)-4-((tetrahydro-2H-pyran-4-yl)amino)cyclohexyl)-1,3-dihydro-2H-benzo[d]imidazol-2-one] | 0.0182 µM
CCC(C)N[C@H]1CC[C@@H](n2c(=O)[nH]c3cc(-c4cc(C)c5ncnn5c4)c(C)cc32)CC1 (stereo partly shown) [Example 34, 1-((1s,4s)-4-(sec-butylamino)cyclohexyl)-6-methyl-5-(8-methyl-[1,2,4]triazolo[1,5-a]pyridin-6-yl)-1,3-dihydro-2H-benzo[d]imidazol-2-one] | 0.0205 µM
COc1cc(-c2cc3[nH]c(=O)n([C@H]4CC[C@@H](NC5CCCCC5)CC4)c3cc2C)cn2ncnc12 [Example 62, 1-((1s,4s)-4-(cyclohexylamino)cyclohexyl)-5-(8-methoxy-[1,2,4]triazolo[1,5-a]pyridin-6-yl)-6-methyl-1,3-dihydro-2H-benzo[d]imidazol-2-one] | 0.012 µM
